Results on five compounds are retold here after patent US6342490B1, “Pharmaceutical composition containing uscharidin or its analogues” (Phyto Corporation Limited, priority 1997, dated 2002).

One series has as its system cancer cell lines. The series can be described thus: NCI in vitro cell screening (SRB, dose-response). It is filed as cell-based. The note with it: NCI panel, 48 hours. The source says: Uscharin was obtained as in Example 2 and was subjected to in vitro cell screening at the National Cancer Institute (NCI), USA in respect of a panel of cancel cell types organised into subpanels representing leukemia, lung cancers, colon cancer, cancer of the central nervous system, melanoma, ovarian cancer, renal cancer, and in some cases prostate cancer and breast cancer also.
The standard NCI methodology which was employed is described in Michael R Boyd, Principles and Practices of Oncology, Vol, 3, No. 10 (October 1989) and Monks A. et al., Journal of the National Cancer Institute, Vol. 83, No. 11, (Jun. 5, 1991).
The Dose-Response Curve is created by plotting the Calculated Percent Growth (PG) of each cell line against the log(10) of the corresponding drug concentration. The cell line curves are grouped by cell type, or subpanel. Mean Log(10) concentrations for all cell lines tested are calculated at three points: where the test compound achieved 50% inhibition of cell growth (GI50), where the test compound achieved 0% cell growth or total growth inhibition (TGI), and where the test compound achiveved 50% cell kill or 50% lethal concentration (LC50). Reference lines are shown at the percent growth values of +50 (GI50), 0 (TGI) and −50 (LC50).
Percentage Growth (PG)—of the compound on a cell line is currently calculated according to one of the following expressions:
If (Mean OD(test)−Mean OD(tzero)>=0,
PG=100×(Mean OD(test)−Mean OD(tzero)/(mean OD(ctrl)−Mean OD(tzero)
If (Mean OD(test−Mean OD(tzero)<0,
PG=100×(Mean OD(test)−Mean OD(tzero)/Mean OD(tzero)
Mean OD (tzero)=The average of optical density measurements of SRB-derived colour just before exposure of cells to the test compound.
Mean OD (test)=The average of optical density measurements of SRB-derived colour after 48 hours […] of cells to the test compound.
Mean OD (ctrl)=The average of optical density measurements of SRB-derived colour after 48 hours […] of cells to the test compound.

The next series deals with SCC-1 cells. The series can be described thus: Nude mice injected with SCC-1 human tumour cells, drug treatment. Format: in vivo, mice (BALB/c nude). As to conditions: nude mice with SCC-1 cells; versus control. Here is the method: The SCCI cells (human tumour cell line) where grown (1×10^5/ml seeding density) in 25 ml RPMI 1640 (10% foetal calf serum, 5% glutamine) in 75 cm^2 tissue culture flasks. The cells were harvested at log growth phase (5 days approximately) and washed once in saline before injection into the mice.
The “nude” mice (BALB/c nude) are reared and contained within a sealed isolator. The mice were injected with 1×10^7 cells subcut on the back, right hand side near the shoulder blades. After 7 days the mice were split randomly into the study groups (10-15 animals per group). Each was then treated with a different regime, the variable being time between injections and dose of drug at each injection, control groups were also included in the overall plan of the experiement.
During the trial a daily check was made on the animals and any animal removed if the tumour size became too large (>5-7% total body weight) or if the animal is showing signs of distress. Additional to this the tumour should be assessed every 3-4 days by an independent observer and the result recorded. Once an animal is removed from the study the tumour size, volume and weight was determined and the tumour stored for further cytological study. The reason for the animals removal from the study was also recorded, if this was not due to tumour size. […]

The subject of the next series is tumour. As to conditions: cited from earlier work.
The next series concerns primate tumour cells. The note with it: cited from earlier work.

Turning to `C[C@@H]1CC(=O)[C@]2(O)O[C@@H]3C[C@@]4(C=O)[C@@H](CC[C@@H]5[C@@H]4CC[C@]4(C)[C@@H](C6=CC(=O)OC6)CC[C@]54O)C[C@H]3O[C@@H]2O1` [Uscharidin, uscharidin], the “inhibitory effect on the growth of cancer cell lines in vitro” value (shortened to “inhibitory effect on the growth”) in the series on cancer cell lines is reported as “inhibitory effect”.

In the case of `C[C@H]1O[C@H]2O[C@@H]3C[C@@H]4CC[C@@H]5C(CC[C@]6(C)[C@@H](C7=CC(=O)OC7)CC[C@]56O)[C@@]4(C=O)C[C@H]3O[C@@]2(O)[C@H](O)[C@@H]1O` (stereo partly shown) [calotoxin], the “inhibitory effect on the growth” value with cancer cell lines is recorded as “inhibitory effect”. Consider `C[C@@H]1C[C@@]2(N=CCS2)[C@]2(O)O[C@@H]3C[C@@]4(C=O)[C@@H](CC[C@@H]5[C@@H]4CC[C@]4(C)[C@@H](C6=CC(=O)OC6)CC[C@]54O)C[C@H]3O[C@@H]2O1` [Uscharin, uscharin], for which the “inhibitory effect on the growth” value in the series on cancer cell lines is reported as “inhibitory effect”. The “reduction in percentage mortality due to the cancer cells” value in the series with SCC-1 cells is listed as “up to 45%”.

With `C[C@@H]1C[C@H](O)[C@]2(O)O[C@@H]3C[C@@]4(C=O)[C@@H](CC[C@@H]5[C@@H]4CC[C@]4(C)[C@@H](C6=CC(=O)OC6)CC[C@]54O)C[C@H]3O[C@@H]2O1` [calotropin], the “in vivo tumour-inhibiting activity” value with tumour is “no in vivo tumour-inhibiting activity”. Take `C[C@]12CC[C@H](O)C[C@@H]1CC[C@@H]1[C@@H]2CC[C@]2(C)[C@@H](C3=CC(=O)OC3)CC[C@]12O` [uzarigenin]: the “in vivo tumour-inhibiting activity” value with tumour is on record as “no in vivo tumour-inhibiting activity”. The “cytotoxic activity against primate tumour cells” value in the series on primate tumour cells was “cytotoxic activity”.
